Source: patent US5352667A, “Non-peptidic surrogates of the Arg-Gly-Asp sequence and pharmaceutical compositions comprising them” (priority 1991, dated 1994)

Columns and labels:
[1] = tested on: CD4^+ T cell adhesion to 120 kD fragment of FN; assay: Inhibition of activated CD4+ T cell adhesion to 120 kD fragment of FN; type: cell-based, human; conditions: for % inhibition of adhesion of activated CD4^+ T cell to 120 kD fragment of FN / % Adhesion of activated CD4^+ T cell to 120 kD fragment of FN: 0.2 mM peptides and surrogates, mAb anti-CD29 1/200, anti-VLA5 1/400 diluted; for % inhibition of adhesion of activated CD4^+ T cell to 120 kD fragment of FN: * P<0.05; for % Adhesion of activated CD4^+ T cell to 120 kD fragment of FN: PMA activated, none 43 ± 4; for T cell adhesion to FN, in words: 0.2 mM, 120 kD fragment of FN
Method: (§1) To examine the adhesive properties of the T cells, 1 μg/50 μl/well of either fibronectin (FN) (Sigma), the 120 kD cell attachment fragment of FN (Telios Pharm. Inc. San Diego, CA), or laminin (LN) (Sigma), were added to 96-flat bottom microtiter-wells for 12 h. Unbound proteins were then washed away and remaining binding sites were blocked with 0.1% bovine serum albumin (BSA) added to the wells for 2 h and washed. CD4+T cells were purified from peripheral blood mononuclear leukocytes obtained from healthy human donors. The mononuclear cells were isolated using a Ficoll gradient, washed and incubated in RPMI supplemented with 10% fetal calf serum (FCS) and antibiotics in petri dishes at 37° C. humidified CO2 incubator. After 2 h, the non-adherent cells were isolated and applied on nylon-wool columns (1.5 h). CD4^+ T cells were then negatively selected by exposure of the cells to a cocktail of anti-CD8, CD19, and CD14 monoclonal antibodies (mAb) conjugated to magnetic-beads (Advanced Magnetics, MA). Unbound cells were recovered and their phenotype was examined. Purity of the CD4^+ T cells was always greater than 92% as determined by FACScan.
(§2) The purified CD4^+ T cells were radioactively labeled with ^51 [Cr](New England Nuclear) in RPMI +20% FCS for 2 h and washed. The cells were counted and seeded (0.2×10^5 cells) on the precoated microtiter wells in the presence or the absence of the various inhibitors. Coating was made either with FN, the 120 kD cell-attachment fragment of FN or with control adhesive protein laminin (LN). The inhibitors were various surrogates according to the invention, other test molecules or mAb. After 30 min incubation (in […] CO2 -- humidified incubator) the T cells were activated by 10 ng/ml phorbol myristate acetate (PMA) and the percent of T cells attached to the protein substrates was measured. Unbound cells were washed away after 20-30 min, the bound cells were lysed and their radioactivity was measured using radioactive counter. The amount of the radioactivity of the cell lysates represent the matrix-adherent cells and percent binding was calculated in comparison to the total radioactivity added to the wells. Activated T cell adhesion to control wells or to wells coated with BSA was always 2-5%; the level of adhesion of the non-activated T cells was always below 5%. Where indicated, 1/200 diluted mAb anti-CD29 (anti-β1 mAb Serotec, GB), or 1/400 diluted anti-VLA5 (the β1α5 FN-integrin receptor) mAb (Telios Pharm. Inc. San Diego), or 0.2 mM of RGD, GRGDSPK or GRGESP peptides (Sigma) were used. The tested non-peptidic surrogates, 0.2 mM in PBS, were used to pretreat the T cells for 15 min before seeding the cells *, P<0.05. The results shown in Tables 1A, 1B and 1C represent data obtained from several experiments that produced essentially similar results.
(§3) The four RGD surrogates, AC-4.

[2] = tested on: CD4^+ T cell adhesion to LN; assay: Inhibition of activated CD4+ T cell adhesion to laminin (LN); type: cell-based, human; conditions: for % inhibition of adhesion of activated CD4^+ T cell to LN / % Adhesion of activated CD4^+ T cell to LN: 0.2 mM peptides and surrogates, mAb anti-CD29 1/200, anti-VLA5 1/400 diluted; for % inhibition of adhesion of activated CD4^+ T cell to LN: * P<0.05; for % Adhesion of activated CD4^+ T cell to LN: none 55 ± 5
Method: as §1, §2, §3

[3] = molecular target: T1, platelet GPIIb-IIIa receptor (Homo sapiens, UniProt P05106+P08514); assay: Inhibition of ADP-induced platelet aggregation (platelet rich plasma); type: cell-based; conditions: for Inhibition of platelet aggregation, dose dependence, in words: FIG. 3; for Inhibition of platelet aggregation at fixed concentration, in words: FIG. 4, fixed sub-saturating 0.5 mM / 10μg/ml, 4 experiments
T1 construct: Platelet concentrates were prepared from human whole blood; endogenous in cells; host or cells: human platelets in platelet rich plasma
Method: To investigate the inhibitory role of the RGD analogues on adhesion, the platelet GPIIb-IIIa receptor which mediates platelet aggregation upon activation was used as a model.
Platelet concentrates were prepared from human whole blood in 10% adenine-citrate-dextrose in Fenwall bags (Baxter Travenol, Israel) followed by standard AABB protocol. Platelet rich plasma was prepared by centrifugation (2500 rpm for 5 min). Samples of platelets were counted in a Minos AST Cell Counter (Levoiselle, France). Cell aggregation was induced by […] and monitored at […] in a 4-channel Aggregometer (Bio-Data, Hatboro, Pa.). To evaluate the effect of the various RGD peptides and the peptide analogues, the platelet rich plasma was pre-incubated with the various inhibitors for 10 min at 37° C. with 10μsolutions followed by the induction of aggregation.
To examine the specificity of the inhibitory effect of the RGD-analogues on platelet aggregation, the cells were treated with various peptidic (RGD and GRGDSP) and non-peptidic (SF-6,6, SF-6,5 and AC-15) RGD analogues used at a fixed sub-saturating concentration of 0.5 mM.
An in vitro assay as described in Example 17 was carried out with the compound NS-11 to examine its ability to interfere with platelet aggregation, and compared it to the SF-6,5 surrogate.
Platelet rich plasma (PRP) was prepared from acid/citrate/dextrose anti-coagulated fresh human blood by differential centrifugation. Platelet aggregation was induced by […] and monitored at 695 nm by a 4-channel Aggregometer (Bio-Data, PA). To evaluate the effect of the RGDS peptide and the NS-8, NS-11 and NS-15 analogs, the PRP was preincubated with the inhibitors for 10 minutes at 37° C., prior to the induction of aggregation. […] In fact, 50% inhibition of platelet aggregation was achieved using a 30-fold lower concentration of NS-11 than that of RGDS.

GPIIb-IIIa = GPIIb-IIIa (Homo sapiens, UniProt P05106+P08514); assay: Inhibition of the binding capacity of anti-GPIIb-IIIa mAb (PAC-1) to platelets; conditions: FIG. 6, 0-500μM, ADP-activated platelets
Method: To investigate whether the RGD surrogates actually bind to the GPIIb-IIIa integrin, their ability to compete with a monoclonal antibody (mAb) specific to GPIIb-IIIa was investigated. This mAb, designated PAC-1, specific for the activated receptor, binds GPIIb-IIIa in an RGD-dependent manner (Taub, R. et al. (1989) J.Biol.Chem. 264: 259).
ADP-activated platelets were incubated with FITC-conjugated PAC-1 mAb in the presence of various peptidic and non-peptidic compounds, as follows: the platelet rich plasma were gel-filtrated into modified Tryode's solution (137.5 mM Nacl, 4 mN Hepes, 2.6 mM KCl,1 mM MgCl2, 3.3 mM NaH2 PO4, 5.6 mM glucose at pH 7.4) containing 350μg/ml BSA (which was used as the incubation buffer in further steps; Tryode's/BSA). The final count in the cell assays was 2×10^6 per ml. The cells were then activated with 10μM ADP and epinephrine. To examine RGD peptides and related analogues as competitors for the binding capacity of the PAC-1 mAb to platelets, the cells were incubated in 50μl Tryode's/BSA supplemented with 1 mM CaCl2 for 30 min in 25° C., in the presence of 0-500μM peptides or peptide-analogues with 10μg/ml FITC labeled PAC-1. The fluorescence profile of the cells was determined using FACScan (Beckton Dickenson) at 488 nm. In FIG. 6: GRGDSPK (empty circles), GRGESP (filled triangles), compound SF-6,5 (empty triangles), compound SF-6,6 (filled circles) (the data shown here represent results obtained in one of three experiments which were essentially identical).

N=C(N)NCCCCCC(=O)NCCCCCC(=O)O [SF-6,6]
% inhibition of adhesion of activated CD4^+ T cell to 120 kD fragment of FN [1]: 0%
% Adhesion of activated CD4^+ T cell to 120 kD fragment of FN [1]: 46 ± 2%
T cell adhesion to FN, in words [1]: did not inhibit T cell adhesion to both FN and LN
T cell adhesion to LN, in words ([2]; 0.2 mM): did not inhibit T cell adhesion to both FN and LN
% inhibition of adhesion of activated CD4^+ T cell to LN [2]: 0%
% Adhesion of activated CD4^+ T cell to LN [2]: 52 ± 6%
Inhibition of platelet aggregation, dose dependence, in words [3]: but not SF-6,6, was found to inhibit the aggregation of platelet rich plasma
Inhibition of platelet aggregation at fixed concentration, in words [3]: very limited inhibitory effect on platelet aggregation
Inhibition of PAC-1 binding to platelets, in words (GPIIb-IIIa): failed to inhibit PAC-1 binding to the platelet integrin receptor

N=C(N)NCCCCCC(=O)NCCCCC(=O)O [SF-6,5, 6-aza-7-oxo-12-quanidino-dodecanoic acid]
% inhibition of adhesion of activated CD4^+ T cell to 120 kD fragment of FN [1]: 49%
% Adhesion of activated CD4^+ T cell to 120 kD fragment of FN [1]: 22 ± 2%
T cell adhesion to FN, in words [1]: most prominent inhibition
% inhibition of adhesion of activated CD4^+ T cell to LN [2]: 0%
% Adhesion of activated CD4^+ T cell to LN [2]: 55 ± 6%
inhibition at 100 µM ([3]; 0.1 mM, ADP-induced, read-out: Percent inhibition of aggregation): 25%
inhibition at 300 µM ([3]; 0.3 mM, ADP-induced, read-out: Percent inhibition of aggregation): 55%
Inhibition of platelet aggregation, dose dependence, in words [3]: found to inhibit the aggregation of platelet rich plasma in a dose-dependent fashion
IC50 ([3]; FIG. 3, ADP-induced): 300 µM
Inhibition of platelet aggregation at fixed concentration, in words [3]: even higher than that of the GRGDSPK peptide
Inhibition of platelet aggregation, in words ([3]; Table 3): mild, though significant effect on aggregation
Inhibition of PAC-1 binding to platelets, in words (GPIIb-IIIa): inhibited PAC-1 staining of the cells in a dose-dependent manner

GRGDSPK [RGD peptide (Sigma)]
% inhibition of adhesion of activated CD4^+ T cell to 120 kD fragment of FN [1]: 54%
% Adhesion of activated CD4^+ T cell to 120 kD fragment of FN [1]: 20 ± 2%
T cell adhesion to FN, in words [1]: specifically inhibited
% inhibition of adhesion of activated CD4^+ T cell to LN [2]: 0%
% Adhesion of activated CD4^+ T cell to LN [2]: 53 ± 4%
Inhibition of platelet aggregation at fixed concentration, in words [3]: marked inhibitory effect on platelet aggregation
Inhibition of PAC-1 binding to platelets, in words (GPIIb-IIIa): inhibited PAC-1 staining of the cells in a dose-dependent manner
